In patent US20120190752A1, “EXO-S-MECAMYLAMINE METHOD, USE, AND COMPOUND FOR TREATMENT” (Targacept Inc., priority 2009, published 2012):

System: subjects with major depressive disorder (MDD) who were inadequate responders to citalopram
Assay: HAMD-17 total score, Phase 2b trial of TC-5214 as add-on to citalopram
Format: in vivo, human
Excerpt: The Hamilton Rating Scale for Depression (HRSD), also known as the Hamilton Depression Rating Scale (HDRS) or abbreviated to HAM-D or HAMD, is a multiple choice questionnaire that clinicians may use to rate the severity of a patient's major depression (Hamilton 1967). The questionnaire rates the severity of symptoms observed in depression such as low mood, insomnia, agitation, anxiety and weight loss. The questionnaire is presently one of the most commonly used scales for rating depression in medical research. The clinician chooses the possible responses to each question by interviewing the patient and by observing the patient's symptoms. Each question has multiple possible responses which increase in severity. Although Hamilton's original scale had 17 questions, others later developed HRSD scales with different numbers of questions, the greatest of which is 29 (HRSD-29). Clinicians can use the HRSD in place of, or in conjunction with, the Montgomery-Åsberg Depression Rating Scale (MADRS), the Beck Depression Inventory (BDI), the Zung Self-Rating Depression Scale, the Wechsler Depression Rating Scale, the […] Depression Rating Scale, the Inventory of Depressive Symptomatology (IDS), the Quick Inventory of Depressive Symptomatology (QIDS), and other questionnaires. […] The results on all of the trial's secondary efficacy measures, including assessments of depression, irritability, disability, cognition, severity of illness and global improvement, were also statistically significant in favor of TC-5214 on an intent to treat basis. The Phase 2b trial of TC-5214 as an augmentation treatment for MDD was a two-phase trial conducted at 20 sites in India and three sites in the United States. In the first phase, 579 subjects with MDD received first-line treatment with citalopram hydrobromide for eight weeks, 20 mg daily for the first four weeks and 40 mg daily for the next four weeks. Citalopram, an approved treatment for MDD marketed in the United States as […]®, is from the drug class known as selective serotonin reuptake inhibitors. At the end of the eight weeks, subjects whose MADRS score had improved less than 50 percent and whose CGI-SI score was no lower than 4 were considered partial or non responders and randomized into the double blind second phase of the trial. In the double blind second phase, subjects continued their citalopram treatment and also received either add-on TC-5214 or add-on placebo for an additional eight weeks. The daily dosage of TC-5214 was initially 2 mg and could be increased at the discretion of the investigator to 4 mg and to 8 mg based on tolerability and therapeutic response. The primary outcome measure for the trial was mean change between TC-5214 and placebo from double blind baseline as measured by HAM-D at week 16. The intent to treat dataset included 265 subjects in the second phase. In more detail, a multi-center double-blind, randomized, placebo-controlled, parallel group, flexible dose titration study of TC-5214 as adjunctive therapy in subjects with major depressive disorder (MDD) who were inadequate responders to citalopram was conducted in centers in the US and India. The study consisted of a screening period, baseline/washout period, open-label phase, double-blind phase, and a follow-up visit. Subject participation in the study could continue for up to 16 weeks of treatment. Following a washout period of up to 28 days for other antidepressants, subjects with MDD and a MADRS total score >/=28 and a Clinical Global Impression-Severity (CGI-S) score >/=4 were enrolled on Day 1 into an open-label citalopram-only phase of the study. This phase lasted 8 weeks, with citalopram (CIT) dose increased from a once-daily dose of 20 mg (Day 1 through Week 4) to 40 mg (Week 4 through Week 8). A total of 579 subjects entered the open-label citalopram phase. […]

[1] = ITT and PP, at almost every assessment week, result in words
[2] = ITT, Double Blind Week 8 (Baseline), before TC-5214
[3] = ITT, Double Blind Week 18 (Follow-up)
[4] = ITT, Double Blind Week 18 LOCF (Follow-up)
[5] = ITT, Double Blind Week 18 LOCF (Follow-up), change from Week 16

SMILES: CNC1(C)C2CCC(C2)C1(C)C (stereo in doubt) [TC-5214, (S)—N,2,3,3-tetramethylnorbornan-2-amine]
- HAMD-17 total score change from baseline compared with placebo (ITT and PP populations, result in words): statistically significant decreases (improvements)
- HAMD responders (reduction from baseline ≧50%) proportion compared with placebo [1]: higher proportion of responders
- HAMD-17 remission proportion compared with placebo [1]: higher proportion of subjects in remission
- HAMD-17 total score, observed Mean [2]: 23.5
- HAMD-17 total score, observed Median [2]: 24.0
- HAMD-17 Remission (Score ≦7): Subjects with Remission (number) (ITT, Double Blind Week 9): 1
- HAMD-17 Remission (Score ≦7): Subjects with Remission (percentage) (ITT, Double Blind Week 9): (1%)
- HAMD-17 Remission (Score ≦7): Subjects without Remission (number) (ITT, Double Blind Week 9): 132
- HAMD-17 Remission (Score ≦7): Subjects without Remission (percentage) (ITT, Double Blind Week 9): (99%)
- HAMD-17 Remission (Score ≦10): Subjects with Remission (number) (ITT, Double Blind Week 9): 4
- HAMD-17 Remission (Score ≦10): Subjects with Remission (percentage) (ITT, Double Blind Week 9): (3%)
- HAMD-17 Remission (Score ≦10): Subjects without Remission (number) (ITT, Double Blind Week 9): 129
- HAMD-17 Remission (Score ≦10): Subjects without Remission (percentage) (ITT, Double Blind Week 9): (97%)
- HAMD-17 reduction from baseline ≧50%: Subjects with Response (number) (ITT, Double Blind Week 9): 4
- HAMD-17 reduction from baseline ≧50%: Subjects with Response (percentage) (ITT, Double Blind Week 9): (3%)
- HAMD-17 reduction from baseline ≧50%: Subjects without Response (number) (ITT, Double Blind Week 9): 129
- HAMD-17 reduction from baseline ≧50%: Subjects without Response (percentage) (ITT, Double Blind Week 9): (97%)
- HAMD-17 Remission (Score ≦7): Subjects with Remission (number) (ITT, Double Blind Week 10): 6
- HAMD-17 Remission (Score ≦7): Subjects with Remission (percentage) (ITT, Double Blind Week 10): (5%)
- HAMD-17 Remission (Score ≦7): Subjects without Remission (number) (ITT, Double Blind Week 10): 127
- HAMD-17 Remission (Score ≦7): Subjects without Remission (percentage) (ITT, Double Blind Week 10): (95%)
- HAMD-17 Remission (Score ≦10): Subjects with Remission (number) (ITT, Double Blind Week 10): 20
- HAMD-17 Remission (Score ≦10): Subjects with Remission (percentage) (ITT, Double Blind Week 10): (15%)
- HAMD-17 Remission (Score ≦10): Subjects without Remission (number) (ITT, Double Blind Week 10): 113
- HAMD-17 Remission (Score ≦10): Subjects without Remission (percentage) (ITT, Double Blind Week 10): (85%)
- HAMD-17 reduction from baseline ≧50%: Subjects with Response (number) (ITT, Double Blind Week 10): 23
- HAMD-17 reduction from baseline ≧50%: Subjects with Response (percentage) (ITT, Double Blind Week 10): (17%)
- HAMD-17 reduction from baseline ≧50%: Subjects without Response (number) (ITT, Double Blind Week 10): 110
- HAMD-17 reduction from baseline ≧50%: Subjects without Response (percentage) (ITT, Double Blind Week 10): (83%)
- HAMD-17 Remission (Score ≦7): Subjects with Remission (number) (ITT, Double Blind Week 12): 20
- HAMD-17 Remission (Score ≦7): Subjects with Remission (percentage) (ITT, Double Blind Week 12): (15%)
- HAMD-17 Remission (Score ≦7): Subjects without Remission (number) (ITT, Double Blind Week 12): 113
- HAMD-17 Remission (Score ≦7): Subjects without Remission (percentage) (ITT, Double Blind Week 12): (85%)
- HAMD-17 Remission (Score ≦10): Subjects with Remission (number) (ITT, Double Blind Week 12): 40
- HAMD-17 Remission (Score ≦10): Subjects with Remission (percentage) (ITT, Double Blind Week 12): (30%)
- HAMD-17 Remission (Score ≦10): Subjects without Remission (number) (ITT, Double Blind Week 12): 93
- HAMD-17 Remission (Score ≦10): Subjects without Remission (percentage) (ITT, Double Blind Week 12): (70%)
- HAMD-17 reduction from baseline ≧50%: Subjects with Response (number) (ITT, Double Blind Week 12): 45
- HAMD-17 reduction from baseline ≧50%: Subjects with Response (percentage) (ITT, Double Blind Week 12): (34%)
- HAMD-17 reduction from baseline ≧50%: Subjects without Response (number) (ITT, Double Blind Week 12): 88
- HAMD-17 reduction from baseline ≧50%: Subjects without Response (percentage) (ITT, Double Blind Week 12): (66%)
- HAMD-17 Remission (Score ≦7): Subjects with Remission (number) (ITT, Double Blind Week 14): 37
- HAMD-17 Remission (Score ≦7): Subjects with Remission (percentage) (ITT, Double Blind Week 14): (28%)
- HAMD-17 Remission (Score ≦7): Subjects without Remission (number) (ITT, Double Blind Week 14): 96
- HAMD-17 Remission (Score ≦7): Subjects without Remission (percentage) (ITT, Double Blind Week 14): (72%)
- HAMD-17 Remission (Score ≦10): Subjects with Remission (number) (ITT, Double Blind Week 14): 60
- HAMD-17 Remission (Score ≦10): Subjects with Remission (percentage) (ITT, Double Blind Week 14): (45%)
- HAMD-17 Remission (Score ≦10): Subjects without Remission (number) (ITT, Double Blind Week 14): 73
- HAMD-17 Remission (Score ≦10): Subjects without Remission (percentage) (ITT, Double Blind Week 14): (55%)
- HAMD-17 reduction from baseline ≧50%: Subjects with Response (number) (ITT, Double Blind Week 14): 72
- HAMD-17 reduction from baseline ≧50%: Subjects with Response (percentage) (ITT, Double Blind Week 14): (54%)
- HAMD-17 reduction from baseline ≧50%: Subjects without Response (number) (ITT, Double Blind Week 14): 61
- HAMD-17 reduction from baseline ≧50%: Subjects without Response (percentage) (ITT, Double Blind Week 14): (46%)
- HAMD-17 Remission (Score ≦7): Subjects with Remission (number) (ITT, Double Blind Week 16): 52
- HAMD-17 Remission (Score ≦7): Subjects with Remission (percentage) (ITT, Double Blind Week 16): (39%)
- HAMD-17 Remission (Score ≦7): Subjects without Remission (number) (ITT, Double Blind Week 16): 81
- HAMD-17 Remission (Score ≦7): Subjects without Remission (percentage) (ITT, Double Blind Week 16): (61%)
- HAMD-17 Remission (Score ≦10): Subjects with Remission (number) (ITT, Double Blind Week 16): 83
- HAMD-17 Remission (Score ≦10): Subjects with Remission (percentage) (ITT, Double Blind Week 16): (62%)
- HAMD-17 Remission (Score ≦10): Subjects without Remission (number) (ITT, Double Blind Week 16): 50
- HAMD-17 Remission (Score ≦10): Subjects without Remission (percentage) (ITT, Double Blind Week 16): (38%)
- HAMD-17 reduction from baseline ≧50%: Subjects with Response (number) (ITT, Double Blind Week 16): 90
- HAMD-17 reduction from baseline ≧50%: Subjects with Response (percentage) (ITT, Double Blind Week 16): (68%)
- HAMD-17 reduction from baseline ≧50%: Subjects without Response (number) (ITT, Double Blind Week 16): 43
- HAMD-17 reduction from baseline ≧50%: Subjects without Response (percentage) (ITT, Double Blind Week 16): (32%)
- HAMD-17 total score, observed Mean (ITT, Double Blind Week 16 LOCF): 9.8
- HAMD-17 total score, observed Median (ITT, Double Blind Week 16 LOCF): 8.0
- HAMD-17 Mean Difference between TC-5214 and Placebo (ITT, Double Blind Week 16 LOCF (change from Week 8)): 6.00
- HAMD-17 Remission (Score ≦7): Subjects with Remission (number) [3]: 60
- HAMD-17 Remission (Score ≦7): Subjects with Remission (percentage) [3]: (45%)
- HAMD-17 Remission (Score ≦7): Subjects without Remission (number) [3]: 73
- HAMD-17 Remission (Score ≦7): Subjects without Remission (percentage) [3]: (55%)
- HAMD-17 Remission (Score ≦10): Subjects with Remission (number) [3]: 85
- HAMD-17 Remission (Score ≦10): Subjects with Remission (percentage) [3]: (64%)
- HAMD-17 Remission (Score ≦10): Subjects without Remission (number) [3]: 48
- HAMD-17 Remission (Score ≦10): Subjects without Remission (percentage) [3]: (36%)
- HAMD-17 reduction from baseline ≧50%: Subjects with Response (number) [3]: 89
- HAMD-17 reduction from baseline ≧50%: Subjects with Response (percentage) [3]: (67%)
- HAMD-17 reduction from baseline ≧50%: Subjects without Response (number) [3]: 44
- HAMD-17 reduction from baseline ≧50%: Subjects without Response (percentage) [3]: (33%)
- HAMD-17 total score, observed Mean [4]: 9.4
- HAMD-17 total score, observed Median [4]: 8.0
- HAMD-17 Adjusted Mean change [5]: −0.70
- HAMD-17 Mean Difference between TC-5214 and Placebo [5]: −0.13
- HAMD-17 Difference vs Placebo + CIT (ITT, Week 8 to Week 16 LOCF): −6.0
- HAMD-17 total (raw) score change from baseline compared with placebo by week (ITT, Weeks 10, 12, 14, and 16, result in words): statistically significant decreases (improvements)
